Results published in ChEMBL document CHEMBL3046097, “Synthesis and QSAR analysis of chalcone derivatives as nitric oxide inhibitory agent” (Med Chem Res, 2012).

Tests used:
[1] = tested on: RAW264.7; test: Anti-inflammatory activity in Mus musculus (mouse) RAW264.7 cells assessed as inhibition of IFN-gamma/LPS-induced NO production after 17 to 20 hr by Griess assay; type: functional, cell-based
[2] = tested on: RAW264.7; test: Cytotoxicity against Mus musculus (mouse) RAW264.7 cells assessed as reduction in viable cells at 50 uM after 17 to 20 hr by MTT assay; type: cell-based; conditions: raw264.7, 50 µM
[3] = tested on: RAW264.7; test: Cytotoxicity against Mus musculus (mouse) RAW264.7 cells assessed as reduction in viable cells at 25 uM after 17 to 20 hr by MTT assay; type: cell-based; conditions: raw264.7, 25 µM
[4] = tested on: RAW264.7; test: Cytotoxicity against Mus musculus (mouse) RAW264.7 cells assessed as reduction in viable cells at 250 uM after 17 to 20 hr by MTT assay; type: cell-based; conditions: raw264.7, 250 µM

| Structure (SMILES) | IC50 ([1]; read-out: IC50) [µM] | IC50 ([1]; read-out: pIC50 (converted)) [µM] | further results |
| --- | --- | --- | --- |
| Cc1ccc(C(=O)/C=C/c2cccc(O)c2)o1 | 9.35 | 9.33 |  |
| COc1ccc(OC)c(/C=C/C(=O)c2ccco2)c1 | 16 | 15.8 |  |
| O=C(/C=C/c1ccccc1O)c1ccccn1 | 29.9 |  |  |
| O=C(/C=C/c1ccccc1O)c1cccs1 | 16.2 |  |  |
| Cc1ccc(C(=O)/C=C/c2ccco2)o1 | 21.3 | 21.4 | Activity [2]: Non-toxic; Activity [3]: Non-toxic; Activity [4]: Non-toxic |
| Cc1ccc(C(=O)/C=C/c2ccc([N+](=O)[O-])cc2)o1 | 14.5 | 14.5 |  |
| Cc1ccc(C(=O)/C=C/c2ccccc2Cl)o1 | 17 | 17 |  |
| O=C(/C=C/c1ccccc1O)c1ccc(Cl)s1 | 23.4 |  |  |
| Cc1cc(C(=O)/C=C/c2cccc(O)c2)c(C)o1 | 7.96 |  |  |
| O=C(/C=C/c1cccc(O)c1)c1ccco1 | 24.8 | 24.5 |  |
| O=C(/C=C/c1ccccc1O)c1ccco1 | 19.3 | 19.5 |  |
| O=C(/C=C/c1cccc(O)c1)c1ccncc1 | ≥ 50 |  |  |
| Cc1cc(C(=O)/C=C/c2ccccc2O)c(C)o1 | 13.8 |  |  |
| Cc1ccc(C(=O)/C=C/c2ccc(F)cc2)o1 | 17 | 17 |  |
| Cc1ccc(C(=O)/C=C/c2cccc(F)c2)o1 | 16.1 | 16.2 |  |
| COc1cc(O)cc(O)c1C(=O)/C=C/c1ccccc1 [CARDAMOMIN] | 11.5 |  |  |
| O=C(/C=C/c1ccc(O)cc1)c1ccncc1 | ≥ 50 |  |  |
| COc1cc(OC)c(/C=C/C(=O)c2ccc(C)o2)c(OC)c1 | 5.62 | 5.62 |  |
| O=C(/C=C/c1ccc(O)cc1)c1ccco1 | 24.9 | 25.1 |  |
| Cc1ccc(C(=O)/C=C/c2ccccc2OCC(=O)O)o1 | ≥ 50 |  |  |

| Structure (SMILES) | IC50 ([1]; read-out: IC50) [µM] | IC50 ([1]; read-out: pIC50 (converted)) [µM] | further results |
| --- | --- | --- | --- |
| COC(=O)[C@@H](N)CCCNC(=N)N[N+](=O)[O-] [L-NAME] | 23.2 |  |  |
| COc1cccc(OC)c1/C=C/C(=O)c1ccc(C)o1 | 6.45 | 6.46 |  |
| COc1ccc(OC)c(/C=C/C(=O)c2cccs2)c1 | 38.7 |  |  |
| O=C(/C=C/c1cccc(O)c1)c1ccc(Cl)s1 | 33.3 |  |  |
| Cc1ccc(C(=O)/C=C/c2ccccc2O)o1 | 5.88 | 6.92 |  |
| O=C(/C=C/c1ccc(O)cc1)c1cccs1 | 46.8 |  |  |
| Cc1ccc(C(=O)/C=C/c2ccc(Cl)cc2)o1 | 11.5 | 11.5 |  |
| Cc1ccc(C(=O)/C=C/c2ccc(O)cc2)o1 | 16.3 | 16.2 |  |
| Cc1cc(C(=O)/C=C/c2ccc(O)cc2)c(C)o1 | 13.5 |  |  |
| O=C(/C=C/c1ccc(O)cc1)c1ccc(Cl)s1 | ≥ 50 |  |  |
| COc1ccc(/C=C/C(=O)c2ccc(C)o2)c(OC)c1OC | 4.47 | 4.47 |  |
| O=C(/C=C/c1cccc(O)c1)c1ccccn1 | 49.5 |  |  |
| Cc1ccc(C(=O)/C=C/c2ccccc2F)o1 | 12.9 | 12.9 |  |
| COc1ccc(/C=C/C(=O)c2ccc(C)o2)c(F)c1 | 5.31 | 12.3 |  |
| COc1cccc(/C=C/C(=O)c2ccc(C)o2)c1OC | 2.26 | 2.24 | Activity [2]: Toxic; Activity [3]: Toxic; Activity [4]: Toxic |
| Cc1ccc(C(=O)/C=C/c2cccc(Cl)c2)o1 | 7.76 | 7.76 |  |
| O=C(/C=C/c1ccccc1O)c1ccncc1 | 31.7 |  |  |
| Cc1cc(C(=O)/C=C/c2ccccc2OCC(=O)O)c(C)o1 | ≥ 50 |  |  |
| COc1ccc(OC)c(/C=C/C(=O)c2ccc(C)o2)c1 | 2.51 | 2.51 |  |
| COc1ccc(OC)c(/C=C/C(=O)c2ccc(Cl)s2)c1 | 26 |  |  |
